Test results published in patent publication US10676721B2, “Bacteriophages expressing antimicrobial peptides and uses thereof” (priority 2009, dated 2020).

Legend:
E. coli [1] = test: MIC of AMPs against E. coli; type: cell-based, Escherichia coli; settings: Table 3; two values per AMP
S. aureus [2] = test: MIC of AMPs / enzyme against S. aureus; type: cell-based, Staphylococcus aureus; settings: Table 3; two values per AMP
[3] = Toxicity of AMPs (Table 3, method not described); design: unit not given here; settings: two values per AMP
E. coli [4] = test: Exponential phase OD600 AMP killing assay on E. coli; type: cell-based, Escherichia coli; settings: concentration not singled out (192 and 640 μg/mL tested)
Description: (§1) 1. Inoculate the appropriate host strain in LB medium with the appropriate selective marker and incubate with shaking at 37° C. overnight. 2. Re-dilute the culture 1:5000 into LB with the appropriate selective marker and grow at 300 rpm and 37° C. to an OD600 between 0.2 and 0.4.3. Add the appropriate amount of AMP or bacteriophage to the wells, running at least duplicate samples, preferably triplicates, and always carrying a no treatment control to control for phage contamination. 4. Sample points every 5 minutes using an automated 96-well assay plate capable heated and shaking plate reader.
(§2) The inventors tested a panel of AMPs, shown in Table 3 to assess which AMP has the greatest bacteriocidality against both E. coli and S. aureus. Cultures were grown to an optical density measured at 600 nm between 0.3-0.6 and then the AMPs were added in the respective concentrations. The decrease in OD600 is assessed as the killing of bacterial cells by the AMP, if the OD600 drops, other results cannot be inferred, as the information gained is from the OD600 is limited. The abbreviation SA denotes tests on Staphylococcus aureus, whereas EC denotes Escherichia coli bacteria. Experiments were run in duplicate. The nomenclature of these graphs follows the pattern: Strain.AMP.Concentration(μg/mL).replicate #(1 or 2). […]

S. aureus [5] = test: Exponential phase OD600 AMP killing assay on S. aureus; type: cell-based, Staphylococcus aureus; settings: concentration not singled out (192 and 640 μg/mL tested)
Description: as §1, §2

Substance: J589_A7: AMP, RLCRIVVIRVCR (SEQ ID NO: 10) (listed as Bos taurus)
- MIC E. coli (E. coli [1]): 64 µg/mL
- MIC S. aureus (S. aureus [2]): 64 µg/mL
- Toxicity [3]: 256
- bacteriocidal / bacteriostatic action on E. coli (OD600) (E. coli [4]): intermediate bacteriocidal action
- bacteriocidal / bacteriostatic action on S. aureus (OD600) (S. aureus [5]): no effects
